How the values were obtained:
[1] = test system: JHH-4 (Hepatocellular Carcinoma); assay: combination Emax (second highest fraction inhibited in the dose matrix, 72 h); higher = more inhibition; extreme values may be limits of the assay
Method in brief: (§1)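 After 24 hours at 37°C and 5% CO2 in 1536-well plates, cells in DMEM/F12 or RPMI plus 10% FBS received two-drug dose matrices for 72 hours. Viability came from CellTiter-Glo 2.0 luminescence and was scaled as inhibition, anchored at 0 by vehicle wells and at 1 by blank wells. Combination Emax is taken as the second-highest inhibition in the matrix, and Bliss excess as the observed combination effect less EA + EB − EA·EB, with EA and EB the single-agent effects.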

[2] = test system: KU812 (Chronic Myelogenous Leukemia); assay: Bliss excess, mean over the matrix (fraction); higher = more synergy
Method in brief: as §1

[3] = test system: VMRC-RCZ (Kidney Carcinoma); assay: as above
Method in brief: as §1

M059J (Glioblastoma) = assay: as above
Method in brief: as §1

[4] = test system: NCI-H929 (Plasma Cell Myeloma); assay: as above
Method in brief: as §1

[5] = test system: NCI-H520 (Squamous Cell Lung Carcinoma); assay: as above
Method in brief: as §1

[6] = test system: KMS-12-BM (Plasma Cell Myeloma); assay: as above
Method in brief: as §1

[7] = test system: 8505C (Thyroid Gland Carcinoma); assay: as above
Method in brief: as §1

SJSA-1 (Osteosarcoma) = assay: as above
Method in brief: as §1

[8] = test system: KY821 (Acute Myeloid Leukemia); assay: as above
Method in brief: as §1

[9] = test system: DMS-114 (Small Cell Lung Carcinoma); assay: as above
Method in brief: as §1

[10] = test system: ESO51 (Esophageal Adenocarcinoma); assay: as above
Method in brief: as §1

[11] = test system: NCI-H661 (Non-Small Cell Lung Carcinoma); assay: as above
Method in brief: as §1

RD (Rhabdomyosarcoma) = assay: as above
Method in brief: as §1

[12] = test system: MOG-G-CCM (Low Grade Glioma); assay: as above
Method in brief: as §1

[13] = test system: MN-60 (B-Lymphoblastic Leukemia); assay: as above
Method in brief: as §1

[14] = test system: IM-95 (Gastric Carcinoma); assay: as above
Method in brief: as §1

[15] = test system: PC-3 (Prostate Carcinoma); assay: as above
Method in brief: as §1

[16] = test system: COR-L279 (Small Cell Lung Carcinoma); assay: as above
Method in brief: as §1

[17] = test system: SUP-B15 (B-Lymphoblastic Leukemia); assay: as above
Method in brief: as §1
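Wherever Bliss excess, mean over the matrix is given: after 72 h of two-drug dosing.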

| SMILES | combination Emax [1] | Bliss excess [2] | Bliss excess [3] | Bliss excess (M059J (Glioblastoma)) | Bliss excess [4] | Bliss excess [5] | Bliss excess [6] | Bliss excess [7] | Bliss excess (SJSA-1 (Osteosarcoma)) | Bliss excess [8] | Bliss excess [9] | Bliss excess [10] | Bliss excess [11] | Bliss excess (RD (Rhabdomyosarcoma)) | Bliss excess [12] | Bliss excess [13] | Bliss excess [14] | Bliss excess [15] | Bliss excess [16] | Bliss excess [17] |
| --- | --- | --- | --- | --- | --- | --- | --- | --- | --- | --- | --- | --- | --- | --- | --- | --- | --- | --- | --- | --- |
| CC1(C)CCC(CN2CCN(c3ccc(C(=O)NS(=O)(=O)c4ccc(NCC5CCOCC5)c([N+](=O)[O-])c4)c(Oc4cnc5[nH]ccc5c4)c3)CC2)=C(c2ccc(Cl)cc2)C1 [Venetoclax] + COc1cc(Nc2ncc3c(n2)-c2ccc(Cl)cc2C(c2c(F)cccc2OC)=NC3)ccc1C(=O)O [Alisertib] (first compound max 1 µM, 7x7, partner max 10 µM) | 0.602 | -0.0121 | -0.0292 | 0.0401 | 0.197 | -0.0425 | 0.085 | 0.0151 | -0.0583 | 0.0079 | 0.0341 | -0.0192 | -0.0206 | 0.0506 | 0.0552 | 0.0368 | 0.005 | -0.0536 | 0.103 | 0.0151 |
| COc1cccc(OCCCN)c1-c1cc(Nc2cnc(C#N)cn2)n[nH]1 [Prexasertib] + O=C(c1cc(Cc2n[nH]c(=O)c3ccccc23)ccc1F)N1CCN(C(=O)C2CC2)CC1 [Olaparib] (first compound max 1 µM, 7x7, partner max 10 µM) | 0.532 | -0.0947 | -0.049 | -0.0643 | -0.0638 | -0.0756 | -0.0312 | -0.0434 | -0.0639 | -0.0266 | 0.0146 | -0.248 | -0.0373 | -0.0444 | -0.053 | -0.0494 | -0.0102 | -0.0355 | -0.0493 | -0.0191 |
| C[C@@H]1COCCN1c1cc(C2([S@](C)(=N)=O)CC2)nc(-c2ccnc3[nH]ccc23)n1 [AZD6738] + O=C(c1cc(Cc2n[nH]c(=O)c3ccccc23)ccc1F)N1CCN(C(=O)C2CC2)CC1 [Olaparib] (first compound max 10 µM, 7x7, partner max 10 µM) | 0.251 | -0.0429 | 0.0181 | 0.0113 | -0.0942 | 0.044 | -0.0189 | 0.0004 | -0.0371 | -0.0521 | 0.0254 | -0.102 | 0.039 | 0.0312 | 0.0005 | -0.042 | 0.031 | -0.0095 | 0.0042 | -0.0608 |
| NC1(C(=O)N[C@@H](CCO)c2ccc(Cl)cc2)CCN(c2ncnc3[nH]ccc23)CC1 [Capivasertib] + C[C@@H]1COCCN1C2=NC(=NC(=C2)C3(CC3)[S@](=N)(=O)C)C4=C5C=CNC5=NC=C4 [AZD6738] (first compound max 10 µM, 7x7, partner max 10 µM) | 0.309 | 0.0357 | -0.0106 | -0.0366 | -0.0009 | -0.0357 | 0.0398 | -0.0138 | -0.0414 | -0.0558 | -0.0067 | -0.0208 | -0.0645 | -0.0453 | -0.0929 | -0.0337 | -0.0093 | -0.0389 | 0.0329 | 0.0044 |
| COc1cccc(OCCCN)c1-c1cc(Nc2cnc(C#N)cn2)n[nH]1 [Prexasertib] + C[C@@H]1COCCN1C2=NC(=NC(=C2)C3(CC3)[S@](=N)(=O)C)C4=C5C=CNC5=NC=C4 [AZD6738] (first compound max 1 µM, 7x7, partner max 10 µM) | 0.501 | -0.046 | 0.0255 | -0.0325 | -0.0081 | -0.0481 | -0.0071 | -0.0075 | 0.0188 | -0.0129 | 0.0485 | -0.0632 | -0.0655 | 0.0085 | -0.0254 | -0.0035 | 0.0244 | -0.0102 | 0.0035 | -0.0671 |
| COc1cccc(OCCCN)c1-c1cc(Nc2cnc(C#N)cn2)n[nH]1 [Prexasertib] + CCc1c2c(nc3ccc(O)cc13)-c1cc3c(c(=O)n1C2)COC(=O)[C@]3(O)CC [SN-38] (first compound max 1 µM, 7x7, partner max 0.3 µM) | 0.954 | -0.124 | 0.0578 | -0.0373 | -0.0713 | -0.0483 | 0.0381 | -0.0559 | -0.129 | -0.0235 | 0.0663 | -0.0376 | 0.0419 | 0.065 | 0.0411 | -0.0452 | 0.0026 | -0.0185 | -0.0221 | -0.0197 |
| COc1nnc2ccc(N3CCC(c4ccc(OCCN5CCN(C)C(=O)[C@H]5C)cc4)CC3)nn12 [AZD5153] + C=CCn1c(=O)c2cnc(Nc3ccc(N4CCN(C)CC4)cc3)nc2n1-c1cccc(C(C)(C)O)n1 [AZD1775] (first compound max 1 µM, partner max 1 µM) | 0.56 | -0.0632 | -0.0287 | -0.106 | -0.0551 | -0.0115 | -0.0243 | 0.0074 | -0.0313 | -0.0266 | -0.0367 | -0.0594 | -0.019 | -0.0171 | -0.0646 | -0.067 | -0.0146 | -0.0118 | -0.0192 | 0.0252 |
| C=CCn1c(=O)c2cnc(Nc3ccc(N4CCN(C)CC4)cc3)nc2n1-c1cccc(C(C)(C)O)n1 [AZD1775] + C1CN(CCC1(C(=O)N[C@@H](CCO)C2=CC=C(C=C2)Cl)N)C3=NC=NC4=C3C=CN4 [Capivasertib] (first compound max 3 µM, partner max 3 µM) | 0.439 | -0.0326 | -0.083 | -0.064 | -0.0234 | -0.0771 | 0.0629 | -0.101 | -0.0088 | 0.0225 | -0.0132 | -0.004 | -0.0905 | -0.034 | -0.0224 | -0.0565 | 0.0275 | -0.0617 | -0.0276 | 0.0073 |
| Cc1cc2ncnn2cc1Nc1ncc2c(n1)n(C1CCOCC1)c(=O)n2C [AZD7648] + C[C@@H]1COCCN1C2=NC(=NC(=C2)C3(CC3)[S@](=N)(=O)C)C4=C5C=CNC5=NC=C4 [AZD6738] (first compound max 10 µM, 7x7, partner max 10 µM) | 0.276 | 0.0087 | 0.0115 | 0.0282 | -0.0268 | -0.0108 | 0.0125 | -0.0223 | 0.0225 | 0.0008 | -0.0072 | 0.0153 | 0.0522 | 0.0425 | -0.062 | -0.0135 | 0.0163 | -0.0161 | 0.0253 | -0.0159 |
| COc1cc2c(cc1OCCCCCOc1cc3c(cc1OC)C(=O)N1C=C(C)C[C@H]1C=N3)N=C[C@@H]1CC(C)=CN1C2=O [SG3199] + O=C(c1cc(Cc2n[nH]c(=O)c3ccccc23)ccc1F)N1CCN(C(=O)C2CC2)CC1 [Olaparib] (first compound max 0.001 µM, 7x7, partner max 10 µM) | 0.149 | -0.0288 | -0.0461 | -0.037 | -0.0333 | -0.0503 | 0.0202 | -0.0031 | -0.0252 | -0.0244 | -0.0398 | -0.0129 | -0.0432 | -0.0453 | -0.0387 | -0.027 | -0.0392 | -0.0417 | -0.0351 | -0.0051 |
| NC1(C(=O)N[C@@H](CCO)c2ccc(Cl)cc2)CCN(c2ncnc3[nH]ccc23)CC1 [Capivasertib] + COc1nnc2ccc(N3CCC(c4ccc(OCCN5CCN(C)C(=O)[C@H]5C)cc4)CC3)nn12 [AZD5153] (first compound max 10 µM, 7x7, partner max 1 µM) | 0.324 | -0.05 | 0.0171 | -0.0266 | -0.008 | 0.0497 | 0.0409 | 0.0008 | -0.0184 | -0.0351 | 0.0259 | 0.0603 | 0.0687 | 0.0116 | 0.0151 | -0.042 | 0.073 | -0.0242 | 0.0735 | 0.0274 |
| Cc1c2c(nn1C)CSCc1cc(n(C)n1)CSc1cc(c3ccccc3c1)OCCCc1c(C(=O)O)n(C)c3c-2c(Cl)ccc13 [AZD5991] + Cn1cnc2c(F)c(Nc3ccc(Br)cc3Cl)c(C(=O)NOCCO)cc21 [Selumetinib] (first compound max 1 µM, 7x7, partner max 3 µM) | 0.492 | 0.0224 | -0.0777 | -0.102 | 0.0275 | -0.0116 | -0.0124 | 0.0319 | -0.0733 | 0.0044 | -0.0317 | 0.0896 | -0.0169 | 0.039 | -0.0241 | -0.0125 | 0.0906 | -0.0029 | -0.0172 | 0.0806 |
| COc1cccc(OCCCN)c1-c1cc(Nc2cnc(C#N)cn2)n[nH]1 [Prexasertib] + CN(C)CCCOc1ccc(-c2ccc3ncc4c(c3c2)n(C2CCOCC2)c(=O)n4C)cn1 [AZD0156] (first compound max 1 µM, 7x7, partner max 1 µM) | 0.529 | -0.061 | -0.0279 | -0.0826 | -0.0523 | -0.0486 | 0.0343 | -0.0089 | -0.0246 | -0.0228 | 0.0778 | -0.0414 | -0.0451 | -0.0008 | -0.0184 | -0.0077 | 0.0384 | -0.0352 | 0.0053 | -0.0513 |
| Cn1cnc2c(F)c(Nc3ccc(Br)cc3Cl)c(C(=O)NOCCO)cc21 [Selumetinib] + C=CCn1c(=O)c2cnc(Nc3ccc(N4CCN(C)CC4)cc3)nc2n1-c1cccc(C(C)(C)O)n1 [AZD1775] (first compound max 10 µM, partner max 1 µM) | 0.728 | -0.0367 | -0.066 | -0.0499 | 0.0127 | -0.0795 | -0.0355 | 0.0279 | -0.0275 | -0.115 | -0.0351 | -0.0767 | -0.0891 | -0.0128 | -0.0923 | -0.0154 | 0.0309 | -0.0947 | 0.0006 | 0.0934 |
| NC1(C(=O)N[C@@H](CCO)c2ccc(Cl)cc2)CCN(c2ncnc3[nH]ccc23)CC1 [Capivasertib] + Cn1cnc2c(F)c(Nc3ccc(Br)cc3Cl)c(C(=O)NOCCO)cc21 [Selumetinib] (first compound max 10 µM, 7x7, partner max 10 µM) | 0.663 | -0.0282 | -0.0066 | -0.0162 | 0.0041 | -0.015 | 0.0441 | 0.0302 | -0.0321 | 0.0177 | 0.0203 | 0.0417 | -0.0074 | 0.0942 | -0.0355 | -0.0652 | -0.0017 | -0.0419 | 0.0214 | 0.0854 |

Reference: the supplement of paper PMC11061612
